Target: T1, NDH-1MS (NDH-1_3), photosynthetic complex I; NdhF3 subunit (Thermosynechococcus vestitus, UniProt Q8DKF5)
T1 construct: native complex from T. elongatus thylakoid membranes, C-terminal TwinStrep tag on CupS; NdhV not resolved; with CO2 hydration protein CupA; CO2 uptake protein CupS; NAD(P)H-quinone oxidoreductase chain 4-3; NAD(P)H-quinone oxidoreductase subunit 1; NAD(P)H-quinone oxidoreductase subunit 2; NAD(P)H-quinone oxidoreductase subunit 3; NAD(P)H-quinone oxidoreductase subunit 4L; NAD(P)H-quinone oxidoreductase subunit 6; NAD(P)H-quinone oxidoreductase subunit L; NAD(P)H-quinone oxidoreductase subunit S; NAD(P)H-quinone oxidoreductase subunit H; NAD(P)H-quinone oxidoreductase subunit I; NAD(P)H-quinone oxidoreductase subunit J; NAD(P)H-quinone oxidoreductase subunit K; NAD(P)H-quinone oxidoreductase subunit M; NAD(P)H-quinone oxidoreductase subunit N; NAD(P)H-quinone oxidoreductase subunit O
T1 sequence (Q8DKF5 1-611): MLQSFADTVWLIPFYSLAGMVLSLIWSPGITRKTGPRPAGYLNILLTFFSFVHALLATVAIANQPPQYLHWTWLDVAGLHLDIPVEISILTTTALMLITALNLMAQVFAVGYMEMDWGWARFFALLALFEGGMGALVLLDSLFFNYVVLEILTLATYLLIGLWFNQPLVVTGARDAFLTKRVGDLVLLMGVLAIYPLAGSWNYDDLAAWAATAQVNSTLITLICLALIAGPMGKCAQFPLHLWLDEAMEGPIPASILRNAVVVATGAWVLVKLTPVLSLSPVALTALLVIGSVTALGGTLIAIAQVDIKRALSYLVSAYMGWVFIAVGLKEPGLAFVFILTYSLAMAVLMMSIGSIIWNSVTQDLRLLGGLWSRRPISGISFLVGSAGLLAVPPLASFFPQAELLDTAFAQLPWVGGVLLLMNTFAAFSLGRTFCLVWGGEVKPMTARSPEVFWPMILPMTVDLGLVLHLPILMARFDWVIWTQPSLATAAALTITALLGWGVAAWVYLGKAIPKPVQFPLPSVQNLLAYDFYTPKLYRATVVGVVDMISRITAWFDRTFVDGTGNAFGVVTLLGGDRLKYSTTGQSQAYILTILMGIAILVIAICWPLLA
Test: cryo-EM structure, […] Å
Format: binding
Details: co-purified; motif with chlorophyll a in NdhF3

SMILES: CC1=C(/C=C/C(C)=C/C=C/C(C)=C/C=C/C=C(C)/C=C/C=C(C)/C=C/C2=C(C)CCCC2(C)C)C(C)(C)CCC1 [β-carotene]
- cryo-EM structure, 3.2 Å: NdhF3 binds a chlorophyll a/β-carotene motif that connects via His469 of NdhF3
